Results taken from ChEMBL document CHEMBL5647692, “The novel dual PI3K/mTOR inhibitor NVP-BGT226 displays cytotoxic activity in both normoxic and hypoxic hepatocarcinoma cells” (Oncotarget, 2015).
pIC50: −log10 of the molar value. Calls of active or inactive are those of the source. No cut-off for these calls is given here.

Columns and labels:
HepG2 [1] = assay: Cytotoxicity against human HepG2 cells assessed as reduction in cell viability at 0.5 to 5 uM incubated for 24 hrs by MTT assay; format: functional, cell-based; conditions: dose 0.5-5 µM
Mahlavu [2] = assay: Cytotoxicity against human Mahlavu cells assessed as reduction in cell viability at 0.5 uM incubated for 24 hrs in presence of chloroquine by MTT assay; format: functional, cell-based
Mahlavu [3] = assay: Cytotoxicity against human Mahlavu cells assessed as reduction in cell viability at 0.5 uM incubated for 24 hrs in presence of 3-Methyladenine under hypoxia condition by MTT assay; format: functional, cell-based
[4] = Inhibition of PI3K/Akt/mTOR signaling pathway in human SNU-449 cells assessed as reduction in phosphorylation of mTORC1 substrate S6 incubated for 1 hr under normoxia condition by Western blotting analysis; format: cell-based; conditions: dose 0.25-1 µM
[5] = Inhibition of PI3K/Akt/mTOR signaling pathway in human Mahlavu cells assessed as reduction in phosphorylation of Akt incubated for 1 hr under normoxia condition by Western blotting analysis; format: cell-based; conditions: dose 0.25-1 µM
HepG2 [6] = assay: Cytotoxicity against human HepG2 cells assessed as reduction in cell viability at 0.5 uM incubated for 24 hrs in presence of 3-Methyladenine by MTT assay; format: functional, cell-based
Mahlavu [7] = assay: Induction of apoptosis in human Mahlavu cells assessed as cleaved Caspase 9 level at 0.5 uM incubated for 24 hrs by Western blotting analysis; format: functional, cell-based
Mahlavu [8] = assay: Induction of apoptosis in human Mahlavu cells incubated for 24 hrs by Annexin-V/7-AAD staining based muse cell analyzer method; format: functional; conditions: dose 0.01-0.5 µM
Mahlavu [9] = assay: Induction of autophagy in human Mahlavu cells assessed as increased expression of LC3 A/B II at 0.5 uM incubated for 24 hrs in presence of chloroquine under hypoxia condition by Western blot analysis; format: functional, cell-based
Mahlavu [10] = assay: Induction of apoptosis in human Mahlavu cells assessed as necrotic cells at IC50 incubated for 24 hrs in presence of Z-VAD-fmk by Annexin-V/7-AAD staining based muse cell analyzer method (reference value: 0.67 %); format: functional
SNU-449 [11] = assay: Cytotoxicity against human SNU-449 cells assessed as reduction in cell viability at 0.5 to 5 uM incubated for 24 hrs by MTT assay; format: functional, cell-based; conditions: dose 0.5-5 µM
Mahlavu [12] = assay: Induction of autophagy in human Mahlavu cells assessed as upregulation of LC3A/B II level by Western blot analysis; format: functional, cell-based; conditions: dose 0.1-0.5 µM
Hep 3B2 [13] = assay: Induction of cell cycle arrest in human Hep3B cells assessed as increase in accumulation of cells in G0/G1 phase incubated at 0.01 to 0.1 uM for 24 hrs by propidium iodide staining based muse cell analysis; format: functional; conditions: dose 0.01-0.1 µM
SNU-475 [14] = assay: Cytotoxicity against human SNU-475 cells assessed as reduction in cell viability at 0.5 to 5 uM incubated for 24 hrs by MTT assay; format: functional, cell-based; conditions: dose 0.5-5 µM
Mahlavu [15] = assay: Induction of apoptosis in human Mahlavu cells assessed as necrotic cells at 0.66 uM incubated for 24 hrs by Annexin-V/7-AAD staining based muse cell analyzer method (reference value: 0.67 %); format: functional
SNU-475 [16] = assay: Induction of autophagy in human SNU-475 cells assessed as increase in lipidation of LC3I to LC3II at 0.5 uM incubated for 24 hrs by Western blot analysis; format: functional, cell-based
[17] = target: Hypoxia-inducible factor 1-alpha (Homo sapiens) (UniProt Q16665); assay: Inhibition of HIF-1alpha in human Hep3B cells incubated for 6 hrs under hypoxia condition by Western blot analysis; format: cell-based; conditions: dose 0.01-0.1 µM
Hep 3B2 [18] = assay: Cytotoxicity against human Hep3B cells assessed as reduction in cell viability incubated for 24 hrs under hypoxia condition by MTT assay; format: functional, cell-based
SNU-449 [19] = assay: Cytotoxicity against human SNU-449 cells assessed as reduction in cell viability incubated for 48 hrs by MTT assay; format: functional, cell-based; conditions: SNU-449, 48 h
Hep 3B2 [20] = assay: Cytotoxicity against human Hep3B cells assessed as reduction in cell viability incubated for 24 hrs under normoxia condition by MTT assay; format: functional, cell-based
Mahlavu [21] = assay: Induction of apoptosis in human Mahlavu cells assessed as early apoptotic cells at IC50 incubated for 24 hrs in presence of Z-VAD-fmk by Annexin-V/7-AAD staining based muse cell analyzer method (reference value: 6.57 %); format: functional
[22] = Inhibition of PI3K/Akt/mTOR signaling pathway in human Mahlavu cells assessed as reduction in phosphorylation of mTORC1 substrate S6 incubated for 1 hr under normoxia condition by Western blotting analysis; format: cell-based; conditions: dose 0.25-1 µM
[23] = Inhibition of PI3K/Akt/mTOR signaling pathway in human Mahlavu cells assessed as reduction in phosphorylation of Akt at 0.001 to 0.01 uM incubated for 1 hr under hypoxia condition by Western blotting analysis; format: cell-based; conditions: dose 0.001-0.01 µM
Mahlavu [24] = assay: Induction of apoptosis in human Mahlavu cells assessed as viable cells at 0.66 uM incubated for 24 hrs by Annexin-V/7-AAD staining based muse cell analyzer method (reference value: 90.52 %); format: functional; conditions: read-out: Activity
[25] = Inhibition of PI3K/Akt/mTOR signaling pathway in human Hep3B cells assessed as reduction in phosphorylation of GSK3 alpha/beta incubated for 1 hr under normoxia condition by Western blotting analysis; format: cell-based; conditions: dose 0.25-1 µM
Mahlavu [26] = assay: Induction of autophagy in human Mahlavu cells assessed as reduction in cytotoxicity at 0.5 uM incubated for 24 hrs by MTT assay; format: functional, cell-based
SNU-475 [27] = assay: Induction of apoptosis in human SNU-475 cells incubated for 24 hrs by Annexin-V/7-AAD staining based muse cell analyzer method; format: functional; conditions: dose 0.01-0.5 µM
Mahlavu [28] = assay: Cytotoxicity against human Mahlavu cells assessed as reduction in cell viability at 0.5 to 5 uM incubated for 24 hrs by MTT assay; format: functional, cell-based; conditions: dose 0.5-5 µM
Mahlavu [29] = assay: Cytotoxicity against human Mahlavu cells assessed as reduction in cell viability incubated for 24 hrs under hypoxia condition by MTT assay; format: functional, cell-based
Mahlavu [30] = assay: Induction of apoptosis in human Mahlavu cells assessed as late apoptotic cells at IC50 incubated for 24 hrs in presence of Z-VAD-fmk by Annexin-V/7-AAD staining based muse cell analyzer method (reference value: 2.24 %); format: functional
Hep 3B2 [31] = assay: Cytotoxicity against human Hep3B cells assessed as reduction in cell viability at 0.5 uM incubated for 24 hrs in presence of 3-Methyladenine by MTT assay; format: functional, cell-based
Mahlavu [32] = assay: Induction of cell cycle arrest in human Mahlavu cells assessed as decrease in accumulation of cells in G2/M phase incubated at 0.01 to 0.1 uM for 24 hrs by propidium iodide staining based muse cell analysis; format: functional; conditions: dose 0.01-0.1 µM
[33] = Inhibition of PI3K/Akt/mTOR signaling pathway in human SNU-475 cells assessed as reduction in S6 phosphorylation at 1 to 10 nM incubated for 1 hr under hypoxia condition by Western blotting analysis; format: cell-based; conditions: dose 1-10 nM
SNU-449 [34] = assay: Induction of apoptosis in human SNU-449 cells assessed as late apoptotic cells at IC50 concentration incubated for 24 hrs in presence of Z-VAD-fmk by Annexin-V/7-AAD staining based muse cell analyzer method (reference value: 5.03 %); format: functional
SNU-475 [35] = assay: Induction of autophagy in human SNU-475 cells assessed as reduction in cytotoxicity at 0.5 uM incubated for 24 hrs by MTT assay; format: functional, cell-based
Hep 3B2 [36] = assay: Induction of apoptosis in human Hep3B cells incubated for 24 hrs by Annexin-V/7-AAD staining based muse cell analyzer method; format: functional; conditions: dose 0.01-0.5 µM

Hypoxia-inducible factor 1-alpha (Homo sapiens), sequence (Q16665 whole entry, looked up): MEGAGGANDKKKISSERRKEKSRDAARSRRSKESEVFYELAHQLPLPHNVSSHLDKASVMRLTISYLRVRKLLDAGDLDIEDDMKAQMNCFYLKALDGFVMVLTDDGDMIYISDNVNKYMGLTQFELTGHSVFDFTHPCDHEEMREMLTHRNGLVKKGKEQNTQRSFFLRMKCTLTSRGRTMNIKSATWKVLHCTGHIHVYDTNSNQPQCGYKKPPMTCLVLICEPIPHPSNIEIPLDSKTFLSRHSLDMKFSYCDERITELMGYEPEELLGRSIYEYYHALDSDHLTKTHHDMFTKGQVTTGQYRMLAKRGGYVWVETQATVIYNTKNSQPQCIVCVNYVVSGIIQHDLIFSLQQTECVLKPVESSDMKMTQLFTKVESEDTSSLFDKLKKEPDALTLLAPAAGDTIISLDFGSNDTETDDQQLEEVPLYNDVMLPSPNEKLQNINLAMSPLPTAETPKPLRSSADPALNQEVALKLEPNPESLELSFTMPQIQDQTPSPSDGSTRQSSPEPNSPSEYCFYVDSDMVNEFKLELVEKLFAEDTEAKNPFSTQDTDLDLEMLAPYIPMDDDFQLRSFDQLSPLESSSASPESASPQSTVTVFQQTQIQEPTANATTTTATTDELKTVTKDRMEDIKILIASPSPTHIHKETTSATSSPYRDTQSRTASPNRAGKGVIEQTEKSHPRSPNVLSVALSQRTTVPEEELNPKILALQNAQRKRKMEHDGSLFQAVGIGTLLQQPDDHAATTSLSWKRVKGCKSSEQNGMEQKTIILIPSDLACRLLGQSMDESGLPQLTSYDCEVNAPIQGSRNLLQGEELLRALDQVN

Q: For `COc1ccc(-c2ccc3ncc4c(c3c2)n(-c2ccc(N3CCNCC3)c(C(F)(F)F)c2)c(=O)n4C)cn1` [BGT-226 FREE BASE], which Activity (HepG2 [1]) is on record?
A: Its Activity is “Active”.

Q: And the Activity (Mahlavu [2])?
A: The Activity was “Active”.

Q: And the Activity (Mahlavu [3])?
A: The Activity was “Active”.

Q: What about the inhibition [4] of the same compound?
A: Its inhibition is “Dose-Dependent Effect”.

Q: And the inhibition [5]?
A: Its inhibition is “Dose-Dependent Effect”.

Q: And the Activity (HepG2 [6])?
A: The Activity was “Active”.

Q: And the Activity (Mahlavu [7])?
A: Its Activity is “Active”.

Q: And the Activity (Mahlavu [8])?
A: The Activity was “Dose-Dependent Effect”.

Q: What about the Activity (Mahlavu [9]) of the same compound?
A: The Activity was “Active”.

Q: What about the Activity (Mahlavu [10]) of the same compound?
A: The Activity was 0.54%.

Q: What about the Activity (SNU-449 [11]) of the same compound?
A: Its Activity is “Active”.

Q: What about the Activity (Mahlavu [12]) of the same compound?
A: Its Activity is “Dose-Dependent Effect”.

Q: And the Activity (Hep 3B2 [13])?
A: Its Activity is “Active”.

Q: What about the Activity (SNU-475 [14]) of the same compound?
A: Its Activity is “Active”.

Q: And the Activity (Mahlavu [15])?
A: The Activity was 0%.

Q: What about the Activity (SNU-475 [16]) of the same compound?
A: Its Activity is “Active”.

Q: And the inhibition [17]?
A: The inhibition was “Dose-Dependent Effect”.

Q: And the Activity (Hep 3B2 [18])?
A: The Activity was “Active”.

Q: And the pIC50 (SNU-449 [19])?
A: Its pIC50 is 6.29.

Q: And the Activity (Hep 3B2 [20])?
A: Its Activity is “Active”.

Q: What about the Activity (Mahlavu [21]) of the same compound?
A: The Activity was 11.97%.

Q: What about the inhibition [22] of the same compound?
A: Its inhibition is “Dose-Dependent Effect”.

Q: And the inhibition [23]?
A: The inhibition was “Active”.

Q: What about the viability at 0.66 µM (Mahlavu [24]) of the same compound?
A: Its viability at 0.66 µM is 50.8%.

Q: What about the inhibition [25] of the same compound?
A: The inhibition was “Dose-Dependent Effect”.

Q: And the Activity (Mahlavu [26])?
A: The Activity was “Active”.

Q: What about the Activity (SNU-475 [27]) of the same compound?
A: Its Activity is “Dose-Dependent Effect”.

Q: And the Activity (Mahlavu [28])?
A: The Activity was “Active”.

Q: What about the Activity (Mahlavu [29]) of the same compound?
A: The Activity was “Active”.

Q: And the Activity (Mahlavu [30])?
A: Its Activity is 5.85%.

Q: What about the Activity (Hep 3B2 [31]) of the same compound?
A: Its Activity is “Active”.

Q: What about the Activity (Mahlavu [32]) of the same compound?
A: Its Activity is “Active”.

Q: And the inhibition [33]?
A: The inhibition was “Active”.

Q: And the Activity (SNU-449 [34])?
A: Its Activity is 4.05%.

Q: What about the Activity (SNU-475 [35]) of the same compound?
A: Its Activity is “Active”.

Q: What about the Activity (Hep 3B2 [36]) of the same compound?
A: The Activity was “Dose-Dependent Effect”.
